According to US9302999B2, “Substituted triazoles as herbicides” (E. I. DU PONT DE NEMOURS AND COMPANY, priority 2012, dated 2016):

Assays:
Type in all cases: in vivo
[1] = test system: deadnettle (henbit deadnettle, Lamium amplexicaule); assay: Test C postemergence: deadnettle
Excerpt: (§1) At the same time, plants selected from these crop and weed species and also barley (winter barley, Hordeum vulgare), canarygrass (Phalaris minor), chickweed (common chickweed, Stellaria media) windgrass (Apera spica-venti) and deadnettle (henbit deadnettle, Lamium amplexicaule) were planted in pots containing Redi-Earth® planting medium (Scotts Company, 14111 Scottslawn Road, Marysville, Ohio 43041) comprising spaghnum peat moss, vermiculite, wetting agent and starter nutrients and treated with postemergence applications of test chemicals formulated in the same manner. Plants ranged in height from 2 to 18 cm (1- to 4-leaf stage) for postemergence treatments.
(§2) Treated plants and controls were maintained in a greenhouse for 13 to 15 days, after which time all species were compared to controls and visually evaluated. Plant response ratings, summarized in Table C, are based on a scale of 0 to 100 where 0 is no effect and 100 is complete control. A dash (-) response means no test result.

[2] = test system: ryegrass, Italian (Italian ryegrass, Lolium multiflorum); assay: Test D pre-/postemergence: ryegrass, Italian
Excerpt: (§3) Seeds of plant species selected from bluegrass (annual bluegrass, Poa annua), blackgrass (Alopecurus myosuroides), canarygrass (Phalaris minor), chickweed (common chickweed, Stellaria media), galium (catchweed bedstraw, Galium aparine), bromegrass, downy (downy bromegrass, Bromus tectorum), field poppy (Papaver rhoeas), field violet (Viola arvensis), foxtail, green (green foxtail, Setaria viridis), deadnettle (henbit deadnettle, Lamium amplexicaule), ryegrass, Italian (Italian ryegrass, Lolium multiflorum), kochia (Kochia scoparia), lambsquarters (Chenopodium album), oilseed rape (Brassica napus), pigweed (Amaranthus retroflexus), Russian thistle (Salsola iberica), chamomile (scentless chamomile, Matricaria inodora), speedwell (bird's-eye speedwell, Veronica persica), barley, spring (spring barley, Hordeum vulgare), wheat, spring (spring wheat, Triticum aestivum), buckwheat, wild (wild buckwheat, Polygonum convolvulus), mustard, wild (wild mustard, Sinapis arvensis), oat, wild (wild oat, Avena fatua), radish, wild (wild radish, Raphanus raphanistrum), windgrass (Apera spica-venti), barley, winter (winter barley, Hordeum vulgare), and wheat, winter (winter wheat, Triticum aestivum) were planted into a silt loam soil and treated preemergence with test chemicals formulated in a non-phytotoxic solvent mixture which included a surfactant. At the same time, these same crop and weed species were planted in pots containing the planting medium comprising spaghnum peat moss, vermiculite, wetting agent and starter nutrients and treated with postemergence applications of the test chemicals formulated in the same manner. Plants ranged in height from 2 to 18 cm (1- to 4-leaf stage).
as §2, with “controlled growth environment” for “greenhouse”, “14” for “13”, “21 days” for “15 days,”, “D,” for “C,”

[3] = test system: lambsquarters (Chenopodium album); assay: Test D pre-/postemergence: lambsquarters
Excerpt: as §3
as §2, with “controlled growth environment” for “greenhouse”, “14” for “13”, “21 days” for “15 days,”, “D,” for “C,”

[4] = test system: blackgrass (Alopecurus myosuroides); assay: Test D pre-/postemergence: blackgrass
Excerpt: as §3
as §2, with “controlled growth environment” for “greenhouse”, “14” for “13”, “21 days” for “15 days,”, “D,” for “C,”

[5] = test system: barley, spring (spring barley, Hordeum vulgare); assay: Test D pre-/postemergence: barley, spring
Excerpt: as §3
as §2, with “controlled growth environment” for “greenhouse”, “14” for “13”, “21 days” for “15 days,”, “D,” for “C,”

[6] = test system: sedge, umbrella (small-flower umbrella sedge Cyperus difformis); assay: Test B flooded paddy: sedge, umbrella; conditions: Flood; 250 g ai/ha; applied to paddy water at 2-leaf stage; visually evaluated after 13 to 15 days
How it was run: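 Paddy-water application: seedlings at 2-leaf stage, flood depth 3 cm maintained for the test duration. Evaluation after 13–15 days in the greenhouse by eye relative to controls; 0–100 scale.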

[7] = test system: common (oilseed) sunflower (Helianthus annuus); assay: Test C pre-/postemergence: sunflower; conditions: Preemergence
Excerpt: Seeds of plant species selected from blackgrass (Alopecurus myosuroides), bromegrass, downy (downy bromegrass, Bromus tectorum), foxtail, green (green foxtail, Setaria viridis), ryegrass, Italian (Italian ryegrass, Lolium multiflorum), winter wheat (Triticum aestivum), wild oat (Avena fatua), galium (catchweed bedstraw, Galium aparine), bermudagrass (Cynodon dactylon), surinam grass (Brachiaria decumbens), cocklebur (common cocklebur, Xanthium strumarium), corn (Zea mays), large crabgrass (Digitaria sanguinalis), woolly cupgrass (Eriochloa villosa), foxtail, giant (giant foxtail, Setaria faberii), goosegrass (Eleusine indica), johnsongrass (Sorghum halepense), kochia (Kochia scoparia), lambsquarters (Chenopodium album), morningglory (Ipomoea coccinea), nightshade (eastern black nightshade, Solanum ptycanthum), nutsedge, yellow (yellow nutsedge, Cyperus esculentus), pigweed (Amaranthus retroflexus), ragweed (common ragweed, Ambrosia elation), soybean (Glycine max), common (oilseed) sunflower (Helianthus annuus), Russian thistle (Salsola kali) and velvetleaf (Abutilon theophrasti) were planted into a blend of loam soil and sand and treated preemergence with test chemicals formulated in a non-phytotoxic solvent mixture which included a surfactant.
as §1, §2

[8] = 31 g ai/ha, scale 0 to 100 (0 no effect, 100 complete control)
[9] = 62 g ai/ha, scale 0 to 100 (0 no effect, 100 complete control)
[10] = 125 g ai/ha, scale 0 to 100, 0 no effect, 100 complete control
[11] = Postemergence, 31 g ai/ha, scale 0 to 100 (0 no effect, 100 complete control)
[12] = Postemergence, 62 g ai/ha, scale 0 to 100 (0 no effect, 100 complete control)
[13] = Postemergence, 125 g ai/ha, scale 0 to 100, 0 no effect, 100 complete control
[14] = Postemergence, 250 g ai/ha, scale 0 to 100 (0 no effect, 100 complete control)
[15] = Postemergence, 16 g ai/ha, scale 0 to 100
[16] = Preemergence, 16 g ai/ha, scale 0 to 100 (0 no effect, 100 complete control)
[17] = Preemergence, 31 g ai/ha, scale 0 to 100 (0 no effect, 100 complete control)
[18] = Preemergence, 62 g ai/ha, scale 0 to 100
[19] = Preemergence, 125 g ai/ha, scale 0 to 100
[20] = Preemergence, 250 g ai/ha, scale 0 to 100

Cc1nn(-c2ccc(F)cc2)nc1Cc1ccnc(C(F)(F)F)c1 [Compound 16, 4-[[2-(4-fluorophenyl)-5-methyl-2H-1,2,3-triazol-4-yl]methyl]-2-(trifluoromethyl)pyridine]
Plant response rating, Deadnettle [1, 8]: 50
Plant response rating, Deadnettle [1, 9]: 98
Plant response rating, Deadnettle [1, 10]: 98
Plant response rating, Deadnettle ([1]; 250 g ai/ha, scale 0 to 100): 100
Plant response rating: Ryegrass, Italian [2, 11]: 20
Plant response rating: Ryegrass, Italian [2, 12]: 25
Plant response rating: Ryegrass, Italian [2, 13]: 30
Plant response rating: Ryegrass, Italian [2, 14]: 35
Plant response rating, Ryegrass, Italian [2, 15]: 10
Plant response rating, Ryegrass, Italian [2, 16]: 0
Plant response rating, Ryegrass, Italian [2, 17]: 0
Plant response rating, Ryegrass, Italian [2, 18]: 10
Plant response rating, Ryegrass, Italian [2, 19]: 60
Plant response rating, Ryegrass, Italian [2, 20]: 60
Plant response rating: Lambsquarters [3, 11]: 80
Plant response rating: Lambsquarters [3, 12]: 100
Plant response rating: Lambsquarters [3, 13]: 100
Plant response rating: Lambsquarters [3, 14]: 100
Plant response rating, Lambsquarters [3, 15]: 75
Plant response rating, Lambsquarters [3, 16]: 30
Plant response rating, Lambsquarters [3, 17]: 50
Plant response rating, Lambsquarters [3, 18]: 80
Plant response rating, Lambsquarters [3, 19]: 95
Plant response rating, Lambsquarters [3, 20]: 100
Plant response rating: Blackgrass [4, 11]: 10
Plant response rating: Blackgrass [4, 12]: 20
Plant response rating: Blackgrass [4, 13]: 25
Plant response rating: Blackgrass [4, 14]: 40
Plant response rating, Blackgrass [4, 15]: 5
Plant response rating, Blackgrass [4, 16]: 0
Plant response rating, Blackgrass [4, 17]: 0
Plant response rating, Blackgrass [4, 18]: 40
Plant response rating, Blackgrass [4, 19]: 70
Plant response rating, Blackgrass [4, 20]: 100
Plant response rating: Barley, Spring [5, 11]: 15
Plant response rating: Barley, Spring [5, 12]: 15
Plant response rating: Barley, Spring [5, 13]: 20
Plant response rating: Barley, Spring [5, 14]: 35
Plant response rating, Barley, Spring [5, 15]: 5
Plant response rating, Barley, Spring [5, 16]: 0
Plant response rating, Barley, Spring [5, 17]: 0
Plant response rating, Barley, Spring [5, 18]: 5
Plant response rating, Barley, Spring [5, 19]: 5
Plant response rating, Barley, Spring [5, 20]: 5

Cc1nn(-c2ccc(C(F)(F)F)cc2)nc1Cc1cccc(C(F)(F)F)c1 [Compound 124]
Plant response rating, Deadnettle ([1]; 16 g ai/ha, scale 0 to 100, 0 no effect, 100 complete control): 75
Plant response rating, Deadnettle [1, 8]: 80
Plant response rating, Deadnettle [1, 9]: 98
Plant response rating, Deadnettle [1, 10]: 98

Cc1nn(-c2ccnc(C(F)(F)F)c2)nc1Cc1ccnc(C(F)(F)F)c1 [Compound 137]
Plant response rating, Deadnettle [1, 8]: 80
Plant response rating, Deadnettle [1, 9]: 95
Plant response rating, Deadnettle [1, 10]: 95
Plant response rating, Deadnettle ([1]; 250 g ai/ha, scale 0 to 100): 95
Plant response rating: Ryegrass, Italian [2, 11]: 10
Plant response rating: Ryegrass, Italian [2, 12]: 25
Plant response rating: Ryegrass, Italian [2, 13]: 35
Plant response rating: Ryegrass, Italian [2, 14]: 40
Plant response rating, Ryegrass, Italian [2, 15]: 0
Plant response rating: Lambsquarters [3, 11]: 75
Plant response rating: Lambsquarters [3, 12]: 80
Plant response rating: Lambsquarters [3, 13]: 95
Plant response rating: Lambsquarters [3, 14]: 95
Plant response rating, Lambsquarters [3, 15]: 40
Plant response rating: Blackgrass [4, 11]: 30
Plant response rating: Blackgrass [4, 12]: 50
Plant response rating: Blackgrass [4, 13]: 70
Plant response rating: Blackgrass [4, 14]: 80
Plant response rating, Blackgrass [4, 15]: 10
Plant response rating: Barley, Spring [5, 11]: 15
Plant response rating: Barley, Spring [5, 12]: 25
Plant response rating: Barley, Spring [5, 13]: 30
Plant response rating: Barley, Spring [5, 14]: 40
Plant response rating, Barley, Spring [5, 15]: 10
Plant response rating, Sedge, Umbrella (0 to 100 scale, 0 is no effect, 100 is complete control) [6]: 70

Cc1nn(-c2ccc(F)c(C(F)(F)F)c2)nc1Oc1ccnc(C(F)(F)F)c1 [Compound 147]
Plant response rating: Ryegrass, Italian [2, 11]: 10
Plant response rating: Ryegrass, Italian [2, 12]: 15
Plant response rating: Ryegrass, Italian [2, 13]: 35
Plant response rating, Ryegrass, Italian [2, 15]: 5
Plant response rating, Ryegrass, Italian [2, 16]: 0
Plant response rating, Ryegrass, Italian [2, 17]: 5
Plant response rating, Ryegrass, Italian [2, 18]: 15
Plant response rating, Ryegrass, Italian [2, 19]: 30
Plant response rating: Lambsquarters [3, 11]: 75
Plant response rating: Lambsquarters [3, 12]: 90
Plant response rating: Lambsquarters [3, 13]: 95
Plant response rating, Lambsquarters [3, 15]: 75
Plant response rating, Lambsquarters [3, 16]: 5
Plant response rating, Lambsquarters [3, 17]: 50
Plant response rating, Lambsquarters [3, 18]: 80
Plant response rating, Lambsquarters [3, 19]: 85
Plant response rating: Blackgrass [4, 11]: 25
Plant response rating: Blackgrass [4, 12]: 30
Plant response rating: Blackgrass [4, 13]: 60
Plant response rating, Blackgrass [4, 15]: 15
Plant response rating, Blackgrass [4, 16]: 0
Plant response rating, Blackgrass [4, 17]: 0
Plant response rating, Blackgrass [4, 18]: 30
Plant response rating, Blackgrass [4, 19]: 40
Plant response rating: Barley, Spring [5, 11]: 15
Plant response rating: Barley, Spring [5, 12]: 20
Plant response rating: Barley, Spring [5, 13]: 25
Plant response rating, Barley, Spring [5, 15]: 15
Plant response rating, Barley, Spring [5, 16]: 0
Plant response rating, Barley, Spring [5, 17]: 0
Plant response rating, Barley, Spring [5, 18]: 5
Plant response rating, Barley, Spring [5, 19]: 10
Plant response rating, Sedge, Umbrella (0 to 100 scale, 0 is no effect, 100 is complete control) [6]: 80
Plant response rating, Sunflower ([7]; 31 g ai/ha, scale of 0 to 100, 0 is no effect, 100 is complete control): 15
Plant response rating, Sunflower ([7]; 62 g ai/ha, scale of 0 to 100, 0 is no effect, 100 is complete control): 15
Plant response rating, Sunflower [7, 10]: 15
Plant response rating, Sunflower ([7]; 250 g ai/ha, scale 0 to 100, 0 no effect, 100 complete control): 25
